Source: patent publication US8940896B2, “Tetra-cyclic carboline derivatives useful in the inhibition of angiogenesis” (PTC Therapeutics, Inc., priority 2004, dated 2015)

The compounds below were run on VEGF (assay: Hypoxia-inducible endogenous VEGF expression, VEGF ELISA assay). Conditions: HeLa cells, hypoxic conditions (1% O2, 5% CO2), VEGF in conditioned media.
Assay type: cell-based
Protocol: The ability of the compounds of the invention to modulate hypoxia-inducible endogenous VEGF expression may be analyzed as follows. VEGF protein levels may be monitored by an ELISA assay (R&D Systems). Briefly, HeLa cells may be cultured for 24-48 hours under hypoxic conditions (1% O2, 5% CO2, balanced with nitrogen) in the presence or absence of a compound of the invention. The conditioned media may then be assayed by ELISA, and the concentration of VEGF calculated from the standard ELISA curve of each assay.
A dose-response analysis may be performed using the ELISA assay and conditions described above. The conditions for the dose-response ELISA are analogous to those described above. A series of, e.g., seven different concentrations may be analyzed. In parallel, a dose-response cytotoxicity assay may be performed using CellTiter Glo (Promega) under the same conditions as the ELISA to ensure that the inhibition of VEGF expression was not due to the cytotoxicity. Dose-response curves may be plotted using percentage inhibition versus concentration of the compound, and EC50 and CC50 values may be generated for each compound with the maximal inhibition set as 100% and the minimal inhibition as 0%.

Question: `COc1ccc(C2c3[nH]c4ccc(Br)cc4c3CC3C(=O)N(C4CCCCC4)C(=S)N32)cc1` (stereo not shown) [Compound 185] was tested. Which EC50 did it give?
Answer: Its EC50 is < 8 nM.

Same assay, conditions: Homo sapiens, HeLa, HeLa cells, hypoxic conditions (1% O2, 5% CO2), VEGF in conditioned media

Question: For `O=C1C2Cc3c([nH]c4ccccc34)C(c3cccc(Cl)c3)N2C(=S)N1C1CCCCC1` (stereo not shown) [Compound 36], which EC50 is on record?
Answer: Its EC50 is > 1000 nM.

Question: `COc1ccc(C2c3[nH]c4ccc(Br)cc4c3CC3C(=O)N(c4ccc5c(c4)OCO5)C(=S)N32)cc1` (stereo not shown) [Compound 179] was tested. Which EC50 did it give?
Answer: The EC50 was < 8 nM.

Question: `O=C1C2Cc3c([nH]c4ccc(Br)cc34)C(c3ccc4c(c3)OCO4)N2C(=S)N1C1CCCC1` (stereo not shown) [Compound 22] was tested. Which EC50 did it give?
Answer: The EC50 was < 8 nM.

Question: How did the EC50 turn out when `C=CCN1C(=O)C2Cc3c([nH]c4ccccc34)C(c3cccc(Cl)c3)N2C1=S` (stereo not shown) [Compound 67] was run?
Answer: Its EC50 is > 1000 nM.

Question: Which EC50 does the source give for `COc1ccc(C2c3[nH]c4ccccc4c3CC3C(=O)N(CCc4ccccc4)C(=S)N32)cc1` (stereo not shown) [Compound 79] here?
Answer: The EC50 was > 1000 nM.

Question: `CC(C)c1ccc(C2c3[nH]c4ccc(Br)cc4c3CC3C(=O)N(C4CCCCC4)C(=S)N32)cc1` (stereo not shown) [Compound 97] was tested. Which EC50 did it give?
Answer: Its EC50 is < 8 nM.

Question: With `COc1ccc(C2c3[nH]c4ccccc4c3CC3C(=O)N(c4ccc(OC)cc4C)C(=S)N32)cc1` (stereo not shown) [Compound 78] as the compound, how does the EC50 read?
Answer: The EC50 was > 1000 nM.

Question: For `O=C1C2Cc3c([nH]c4ccc(Br)cc34)C(c3ccc(OCCCN4CCCC4)cc3)N2C(=S)N1c1ccc(Cl)cc1` (stereo not shown) [Compound 189], which EC50 is on record?
Answer: The EC50 was 8 to 40 nM.

Question: How did the EC50 turn out when `CCCCCN1C(=O)C2Cc3c([nH]c4ccc(Br)cc34)C(c3ccc(C(C)C)cc3)N2C1=S` (stereo not shown) [Compound 98] was run?
Answer: The EC50 was < 8 nM.

Question: With `COc1ccccc1C1c2[nH]c3ccccc3c2CC2C(=O)N(c3ccccc3)C(=S)N21` (stereo not shown) [Compound 88] as the compound, how does the EC50 read?
Answer: The EC50 was > 1000 nM.

Question: How did the EC50 turn out when `CN1C(=O)C2Cc3c([nH]c4ccccc34)C(c3ccc(Cl)c(Cl)c3)N2C1=S` (stereo not shown) [Compound 53] was run?
Answer: Its EC50 is > 1000 nM.

Question: `CC(C)N1C(=O)C2Cc3c([nH]c4ccc(Cl)cc34)C(c3ccc(-c4cncnc4)cc3)N2C1=S` (stereo not shown) [Compound 135] was tested. Which EC50 did it give?
Answer: Its EC50 is 40 to 200 nM.

Question: For `COc1ccccc1C1c2[nH]c3ccccc3c2CC2C(=O)N(C(C)C)C(=S)N21` (stereo not shown) [Compound 86], which EC50 is on record?
Answer: The EC50 was > 1000 nM.

Question: How did the EC50 turn out when `CN1C(=O)C2Cc3c([nH]c4ccc(Br)cc34)C(c3ccc(OCCN4CCOCC4)cc3)N2C1=S` (stereo not shown) [Compound 100] was run?
Answer: Its EC50 is 8 to 40 nM.

Question: How did the EC50 turn out when `COCCOc1ccc([C@@H]2c3[nH]c4ccc(Br)cc4c3C[C@H]3C(=O)N(C4CCCCC4)C(=S)N23)cc1` [Compound 148] was run?
Answer: The EC50 was 200 to 1000 nM.

Question: How did the EC50 turn out when `CN1CCN(CCCOc2ccc(C3c4[nH]c5ccc(Br)cc5c4CC4C(=O)N(c5ccc(Cl)cc5)C(=S)N43)cc2)CC1` (stereo not shown) [Compound 198] was run?
Answer: Its EC50 is < 8 nM.

Question: Which EC50 does the source give for `COC(=O)c1ccc(N2C(=O)C3Cc4c([nH]c5ccc(Br)cc45)C(c4ccc(OC)cc4)N3C2=S)cc1` (stereo not shown) [Compound 139] here?
Answer: Its EC50 is 8 to 40 nM.

Question: How did the EC50 turn out when `O=C1C2Cc3c([nH]c4ccccc34)C(c3ccccc3)N2C(=S)N1C1CCCCC1` (stereo not shown) [Compound 56] was run?
Answer: The EC50 was > 1000 nM.

Question: For `O=C1C2Cc3c([nH]c4ccccc34)C(c3ccc4c(c3)OCO4)N2C(=S)N1C1CCCC1` (stereo not shown) [Compound 14], which EC50 is on record?
Answer: Its EC50 is 200 to 1000 nM.

Question: With `O=C1C2Cc3c([nH]c4ccc(Br)cc34)C(c3ccc(OCCN4CCOCC4)cc3)N2C(=S)N1C1CCCC1` (stereo not shown) [Compound 104] as the compound, how does the EC50 read?
Answer: Its EC50 is < 8 nM.

Question: `Cc1ccc(N2C(=O)C3Cc4c([nH]c5ccc(Br)cc45)C(c4ccc(C(C)C)cc4)N3C2=S)cc1` (stereo not shown) [Compound 96] was tested. Which EC50 did it give?
Answer: The EC50 was < 8 nM.

Question: How did the EC50 turn out when `CC(C)N1C(=O)C2Cc3c([nH]c4ccc(Br)cc34)C(c3ccc(OCCCN4CCCC4)cc3)N2C1=S` (stereo not shown) [Compound 150] was run?
Answer: Its EC50 is < 8 nM.

Question: For `O=C1C2Cc3c([nH]c4ccc(Br)cc34)C(C3CCCCC3)N2C(=S)N1C1CCCCC1` (stereo not shown) [Compound 30], which EC50 is on record?
Answer: Its EC50 is 40 to 200 nM.

Question: With `COCCOc1ccc(C2c3[nH]c4ccc(Cl)cc4c3CC3C(=O)N(C4CCCC4)C(=S)N32)cc1` (stereo not shown) [Compound 109] as the compound, how does the EC50 read?
Answer: Its EC50 is 8 to 40 nM.

Question: Which EC50 does the source give for `O=C1C2Cc3c([nH]c4ccccc34)C(c3ccc4c(c3)OCO4)N2C(=S)N1C1CCCCC1` (stereo not shown) [Compound 3] here?
Answer: Its EC50 is > 1000 nM.

Question: For `CCOC(=O)C(C)N1C(=O)C2Cc3c([nH]c4ccc(Br)cc34)C(c3ccc(OC)cc3)N2C1=S` (stereo not shown) [Compound 144], which EC50 is on record?
Answer: The EC50 was 8 to 40 nM.

Question: For `Cc1ccc(N2C(=O)C3Cc4c([nH]c5ccccc45)C(c4cccc(Cl)c4)N3C2=S)cc1` (stereo not shown) [Compound 34], which EC50 is on record?
Answer: The EC50 was 200 to 1000 nM.

Question: For `COC(=O)c1cccc(N2C(=O)C3Cc4c([nH]c5ccc(Br)cc45)C(c4ccc(OC)cc4)N3C2=S)c1` (stereo not shown) [Compound 140], which EC50 is on record?
Answer: Its EC50 is < 8 nM.

Question: With `CC(C)N1C(=O)C2Cc3c([nH]c4ccc(Cl)cc34)C(c3ccc(N4CCOCC4)cc3)N2C1=O` (stereo not shown) [Compound 122] as the compound, how does the EC50 read?
Answer: Its EC50 is 200 to 1000 nM.

Question: With `COc1ccc(C2c3[nH]c4ccc(Br)cc4c3CC3C(=O)N(CC4CCCO4)C(=S)N32)cc1` (stereo not shown) [Compound 143] as the compound, how does the EC50 read?
Answer: The EC50 was 8 to 40 nM.

Question: `COc1ccc(C2c3[nH]c4ccccc4c3CC3C(=O)N(c4ccc(C(C)C)cc4)C(=O)N32)cc1` (stereo not shown) [Compound 35] was tested. Which EC50 did it give?
Answer: Its EC50 is 200 to 1000 nM.

Question: With `COc1ccc(C2c3[nH]c4ccc(Br)cc4c3CC3C(=O)N(c4cccnc4)C(=S)N32)cc1` (stereo not shown) [Compound 99] as the compound, how does the EC50 read?
Answer: Its EC50 is < 8 nM.

Question: Which EC50 does the source give for `COc1ccc(C2c3[nH]c4ccc(Br)cc4c3CC3C(=O)N(c4cccc(OC)c4)C(=S)N32)cc1` (stereo not shown) [Compound 142] here?
Answer: Its EC50 is < 8 nM.

Question: With `CCCN1C(=O)C2Cc3c([nH]c4ccc(Br)cc34)C(c3ccc(OCCN4CCOCC4)cc3)N2C1=S` (stereo not shown) [Compound 102] as the compound, how does the EC50 read?
Answer: Its EC50 is 8 to 40 nM.

Question: For `CN(C)CCCOc1ccc(C2c3[nH]c4ccc(Br)cc4c3CC3C(=O)N(C4CCCCC4)C(=S)N32)cc1` (stereo not shown) [Compound 112], which EC50 is on record?
Answer: The EC50 was < 8 nM.

Question: `CCN1C(=O)C2Cc3c([nH]c4ccc(Br)cc34)C(c3ccc(OCCN4CCOCC4)cc3)N2C1=S` (stereo not shown) [Compound 101] was tested. Which EC50 did it give?
Answer: Its EC50 is < 8 nM.

Question: With `O=C1C2Cc3c([nH]c4ccc(Br)cc34)C(c3ccc(OCCCn4ccnc4)cc3)N2C(=S)N1c1ccc(Cl)cc1` (stereo not shown) [Compound 199] as the compound, how does the EC50 read?
Answer: Its EC50 is < 8 nM.

Question: With `COc1ccc(C2c3[nH]c4ccc(Br)cc4c3CC3C(=O)N(c4cccc(Cl)c4)C(=S)N32)cc1` (stereo not shown) [Compound 165] as the compound, how does the EC50 read?
Answer: Its EC50 is < 8 nM.

Question: With `COc1ccc(C2c3[nH]c4ccc(Br)cc4c3CC3C(=O)N(CCc4ccccc4)C(=S)N32)cc1` (stereo not shown) [Compound 181] as the compound, how does the EC50 read?
Answer: Its EC50 is < 8 nM.

Question: How did the EC50 turn out when `O=C1C2Cc3c([nH]c4ccc(Br)cc34)C(c3ccc4c(c3)OCO4)N2C(=O)N1C1CCCCC1` (stereo not shown) [Compound 29] was run?
Answer: The EC50 was 8 to 40 nM.

Question: With `COc1ccc(C2c3[nH]c4ccc(Br)cc4c3CC3C(=O)N(c4ccc(OC)cc4C)C(=S)N32)cc1` (stereo not shown) [Compound 177] as the compound, how does the EC50 read?
Answer: Its EC50 is 40 to 200 nM.

Question: How did the EC50 turn out when `O=C1C2Cc3c([nH]c4ccc(Cl)cc34)C(c3ccc(OCCN4CCOCC4)cc3)N2C(=S)N1C1CCCCC1` (stereo not shown) [Compound 113] was run?
Answer: Its EC50 is < 8 nM.

Question: `COc1ccccc1C1c2[nH]c3ccccc3c2CC2C(=O)N(c3ccccc3C)C(=S)N21` (stereo not shown) [Compound 89] was tested. Which EC50 did it give?
Answer: The EC50 was > 1000 nM.

Question: Which EC50 does the source give for `COc1ccc(C2c3[nH]c4ccc(Br)cc4c3CC3C(=O)N(c4cccc(C(F)(F)F)c4)C(=S)N32)cc1` (stereo not shown) [Compound 162] here?
Answer: The EC50 was < 8 nM.

Question: For `COc1cccc(C2c3[nH]c4ccccc4c3CC3C(=O)N(c4ccccc4)C(=S)N32)c1` (stereo not shown) [Compound 57], which EC50 is on record?
Answer: The EC50 was > 1000 nM.

Question: How did the EC50 turn out when `COc1cccc(C2c3[nH]c4ccccc4c3CC3C(=O)N(C4CCCCC4)C(=S)N32)c1` (racemic) [Compound 2] was run?
Answer: The EC50 was > 1000 nM.

Question: `O=C1C2Cc3c([nH]c4ccc(Br)cc34)C(C3CCCCC3)N2C(=S)N1C1CCCC1` (stereo not shown) [Compound 19] was tested. Which EC50 did it give?
Answer: Its EC50 is 8 to 40 nM.

Question: With `O=C1C2Cc3c([nH]c4ccccc34)C(c3ccccc3)N2C(=O)N1C1CCCCC1` (stereo not shown) [Compound 72] as the compound, how does the EC50 read?
Answer: The EC50 was > 1000 nM.

Question: For `O=C1C2Cc3c([nH]c4ccc(Br)cc34)C(c3ccc(OCCN4CCOCC4)cc3)N2C(=S)N1CC1CCCO1` (stereo not shown) [Compound 106], which EC50 is on record?
Answer: The EC50 was 40 to 200 nM.

Question: Which EC50 does the source give for `O=C1C2Cc3c([nH]c4ccc(Cl)cc34)C(c3ccc4c(c3)OCO4)N2C(=S)N1C1CCCCC1` (stereo not shown) [Compound 25] here?
Answer: The EC50 was < 8 nM.

Question: With `CCOCN(C)CCCOc1ccc(C2c3[nH]c4ccc(Br)cc4c3CC3C(=O)N(c4ccc(Cl)cc4)C(=S)N32)cc1` (stereo not shown) [Compound 197] as the compound, how does the EC50 read?
Answer: The EC50 was 8 to 40 nM.
